Experimental data taken from ChEMBL document CHEMBL1124642 (1989).
The source made the active and inactive calls. The rule behind the calls is not given here.

Legend:
Cavia porcellus = species: Cavia porcellus; assay: Effective dose for guinea pig ileum contractions; format: functional; conditions: for EC50: read-out: ED50 (the source's name)
[1] = molecular target: Muscarinic acetylcholine receptor (Homo sapiens) (UniProt P20309+P08173+P11229+P08172+P08912); assay: Tested in vitro for agonistic effect on Muscarinic acetylcholine receptor of guinea pig ileum; IA = Inactive; format: functional, tissue-based; conditions: Cavia porcellus, target entry is the homologue from another species

Row | SMILES | EC50 (Cavia porcellus) [µM] | also measured
1 | CCN1C(=O)OCC1Cc1cn(Cc2ccccc2)cn1 (stereo not given) | – | ED50 (Cavia porcellus): inactive
2 | CCN1C(=O)OCC1Cc1cn(C)cn1 (stereo not given) | 14 | –
3 | CCN1C(=O)OCC1Cc1cn(Cc2ccccc2)c[n+]1C (stereo not given) | – | ED50 [1]: inactive
4 | CCN1C(=O)OCC1Cc1c[nH]cn1 (stereo not given) | 180 | –
5 | CCN1C(=O)OCC1Cc1cncn1C (stereo not given) | 1 | –
